According to the Kinase Knowledgebase extract (Sharma et al. 2016):
pIC50: −log10 of the molar value.

These compounds were tested against PIK3CA (human) (UniProt P42336) (assay: Assessment of PIK3CA Kinase Activity).
Sequence of PIK3CA (human) (P42336 whole entry, looked up): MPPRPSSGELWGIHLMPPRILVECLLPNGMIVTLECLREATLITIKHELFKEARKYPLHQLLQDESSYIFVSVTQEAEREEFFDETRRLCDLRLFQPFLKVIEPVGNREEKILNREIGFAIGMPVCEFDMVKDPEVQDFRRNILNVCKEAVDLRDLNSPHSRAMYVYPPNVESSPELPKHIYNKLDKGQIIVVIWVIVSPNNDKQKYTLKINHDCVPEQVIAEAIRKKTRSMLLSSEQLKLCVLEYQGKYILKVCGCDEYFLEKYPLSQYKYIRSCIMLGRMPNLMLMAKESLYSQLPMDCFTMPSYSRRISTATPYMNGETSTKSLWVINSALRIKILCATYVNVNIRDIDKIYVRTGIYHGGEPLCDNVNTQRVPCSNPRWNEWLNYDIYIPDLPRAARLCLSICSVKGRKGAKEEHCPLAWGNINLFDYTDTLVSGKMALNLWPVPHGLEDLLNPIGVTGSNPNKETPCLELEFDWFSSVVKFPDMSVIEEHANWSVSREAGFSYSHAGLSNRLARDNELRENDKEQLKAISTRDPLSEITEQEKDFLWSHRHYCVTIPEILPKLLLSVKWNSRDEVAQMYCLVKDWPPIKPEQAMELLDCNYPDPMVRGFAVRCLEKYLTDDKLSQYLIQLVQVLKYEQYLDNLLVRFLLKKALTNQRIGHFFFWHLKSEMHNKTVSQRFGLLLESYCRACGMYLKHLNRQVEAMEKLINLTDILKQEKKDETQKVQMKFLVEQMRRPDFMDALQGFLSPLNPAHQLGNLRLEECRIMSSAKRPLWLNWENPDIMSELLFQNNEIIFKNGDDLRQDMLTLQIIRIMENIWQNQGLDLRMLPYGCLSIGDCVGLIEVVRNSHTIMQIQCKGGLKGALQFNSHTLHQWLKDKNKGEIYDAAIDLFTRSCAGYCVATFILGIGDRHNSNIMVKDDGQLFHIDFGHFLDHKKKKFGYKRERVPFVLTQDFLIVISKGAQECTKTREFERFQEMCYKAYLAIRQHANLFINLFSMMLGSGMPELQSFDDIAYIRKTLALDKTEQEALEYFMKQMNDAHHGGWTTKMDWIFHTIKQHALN

| Compound | pIC50 |
| --- | --- |
| O=C(c1nc2c(s1)CCOc1cc(-c3cn[nH]c3)ccc1-2)N1CCN(CC2CC2)CC1 | > 6.00 |
| CN(C(=O)c1cc2c(s1)-c1ccc(C(=O)NCCS(C)(=O)=O)cc1OCC2)c1cc(C(=O)N2CC(F)(F)C2)ccc1Cl | > 6.00 |
| O=C(c1nc2c(s1)CCOc1cc(-c3cn[nH]c3)ccc1-2)N1CCN(C(=O)C2CC2)CC1 | > 6.00 |
| CN1CCC(N(C)C(=O)c2nc3c(s2)CCOc2cc(-c4cn[nH]c4)ccc2-3)C1 (stereo unspecified) | > 6.00 |
| O=C(c1nc2c(s1)CCOc1cc(-c3cn[nH]c3)ccc1-2)N1CCC(CO)CC1 | > 6.00 |
| CC(=O)N1CCN(c2ccc3c(n2)-c2sc(-c4ncnn4-c4ccc(F)cc4F)cc2CCO3)CC1 | > 6.00 |
| O=C(c1nc2c(s1)CCOc1cc(-c3cn[nH]c3)ccc1-2)N1CCC[C@@H]1Cc1ccccn1 | > 6.00 |
| Nc1nc(-c2cc3c(s2)-c2ccc(C(=O)NC4COC4)cc2OCC3)n(-c2ccc(F)cc2F)n1 | > 6.00 |
| CC(C)N(CCO)C(=O)c1nc2c(s1)CCOc1ccc(-c3cnn(C[C@@H](C)O)c3)cc1-2 | > 6.00 |
| CC(C)N1CCN(c2ccc3c(n2)-c2sc(-c4ncnn4-c4ccc(F)cc4F)cc2CCO3)CC1 | > 6.00 |
| CNC(=O)c1ccc2c(c1)OCCc1cc(C(=O)N(C)c3cc(C(=O)NC[C@@H](C)O)ccc3Cl)sc1-2 | > 6.00 |
| O=C(c1nc2c(s1)CCOc1cc(-c3cn[nH]c3)ccc1-2)N1CCC(O)CC1 | > 6.00 |
| CC(C)N(CCO)C(=O)c1nc2c(s1)CCOc1ccc(-c3cnc(N)nc3)cc1-2 | > 6.00 |
| CN(C[C@H]1Cc2ccccc2O1)C(=O)c1nc2c(s1)CCOc1cc(-c3cn[nH]c3)ccc1-2 | > 6.00 |
| Cc1nc(-c2nc3c(s2)CCOc2cc(C4CN(C(=O)[C@H](C)O)C4)ccc2-3)n(C(C)C)n1 | > 6.00 |
| CN(C[C@H]1CCCO1)C(=O)c1nc2c(s1)CCOc1cc(-c3cn[nH]c3)ccc1-2 | > 6.00 |
| O=C1CN(c2ccc3c(n2)-c2sc(-c4ncnn4-c4ccc(F)cc4F)cc2CCO3)CCN1 | > 6.00 |
| NC(=O)CNc1ccc2c(n1)-c1sc(-c3ncnn3-c3ccc(F)cc3F)cc1CCO2 | > 6.00 |

Other lines, results leading:

| pIC50 | Compound |
| --- | --- |
| > 6.00 | CC(C)N1CC(c2ccc3c(c2)OCCc2sc(-c4ncnn4C(C)C)nc2-3)C1 |
| > 6.00 | CCn1ccc(-c2ccc3c(c2)OCCc2sc(-c4ncnn4C(C)C)nc2-3)cc1=O |
| > 6.00 | CC(C)n1ncnc1-c1nc2c(s1)CCOc1cc(C3(F)CCN(CC(=O)N(C)C)CC3)ccc1-2 |
| > 6.00 | Cc1nn(C(C)C)c(=O)n1-c1nc2c(s1)CCOc1cc(-c3cnn(CC(C)(C)O)c3)ccc1-2 |
| > 6.00 | Cc1nc(-c2nc3c(s2)CCOc2cc(C4COC4)ccc2-3)n(C(C)C)n1 |
| > 6.00 | CCOc1ncccc1-c1ccc2c(c1)-c1nc(-c3ncnn3C(C)C)sc1CCO2 |
| > 6.00 | CC(C)n1ncnc1-c1nc2c(s1)CCOc1cc(C3CN(CCS(=O)(=O)N4CC(F)(F)C4)C3)ccc1-2 |
| > 6.00 | CC(C)n1ncnc1-c1nc2c(s1)CCOc1ccc(-c3cccn(C)c3=O)cc1-2 |
| > 6.00 | O=C(O)c1cccc(-c2ccc3c(c2)OCCc2sc(-c4ncnn4CC(F)(F)F)nc2-3)c1 |
| > 6.00 | CC(C)n1ncnc1-c1nc2c(s1)CCOc1ccc(-c3cccn(CC(=O)N(C)C)c3=O)cc1-2 |
| > 6.00 | CC(C)n1ncnc1-c1cc2c(s1)-c1ccc(-c3cccc(S(C)(=O)=O)c3)cc1OCC2 |
| > 6.00 | CC(C)n1ncnc1-c1nc2c(s1)CCOc1ccc(C3CCN(C(=O)[C@@H](C)O)CC3)cc1-2 |
| > 6.00 | CC(C)n1ncnc1-c1nc2c(s1)CCOc1cc(C3CCN(CC(=O)NC(C)(C)C)CC3)ccc1-2 |
| > 6.00 | CC(C)n1ncnc1-c1nc2c(s1)CCOc1ccc(-c3ccn(C)c(=O)c3)cc1-2 |
| > 6.00 | CC(C)n1ncnc1-c1nc2c(s1)CCOc1cc(-c3cccc(CC(N)=O)c3)ccc1-2 |
| > 6.00 | COCCN1CCC(c2ccc3c(c2)OCCc2sc(-c4ncnn4C(C)C)nc2-3)CC1 |
| > 6.00 | COCCNCc1ccc2c(c1)OCCc1sc(-c3nncn3C(C)C)nc1-2 |
| > 6.00 | CC(C)n1ncnc1-c1nc2c(s1)CCOc1ccc(C3CN(Cc4ccccc4Cl)C3)cc1-2 |
